Source: article PMC8900659 (Nature chemical biology, 2021)

How the values were obtained:
[1] = system: NRAS mutant OCI-AML3 cells; test: pERK Western blot; details: 4 h; Palm M 10 μM, ABD957 500 nM, PD901 10 nM
KRAS mutant NB-4 cells = test: pERK Western blot; details: 4 h; Palm M 10 μM, ABD957 500 nM, PD901 10 nM
ABHD10 = biological target: T1, ABHD10 (Homo sapiens, UniProt Q9NUJ1); test: in vitro MS-ABPP, OCI-AML3 proteome; type: biochemical; details: 1 and 10 μM, 30 min, particulate fraction
T1 sequence (Q9NUJ1 53-306): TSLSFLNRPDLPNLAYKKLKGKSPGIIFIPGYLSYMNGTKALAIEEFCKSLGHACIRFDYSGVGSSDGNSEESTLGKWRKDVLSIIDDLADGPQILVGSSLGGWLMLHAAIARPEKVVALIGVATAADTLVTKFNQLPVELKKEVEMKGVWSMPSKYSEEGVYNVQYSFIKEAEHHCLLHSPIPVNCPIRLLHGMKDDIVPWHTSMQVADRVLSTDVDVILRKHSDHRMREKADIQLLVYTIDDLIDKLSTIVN

ABHD17A/B/C = test: targeted MS-ABPP in situ time-course in ONK cells; type: cell-based, human; details: 1 μM
[2] = system: wild type N-Ras palmitoylation; test: MS-based dynamic palmitoylation profiling in NB-4 cells; type: cell-based, human
[3] = system: dynamically palmitoylated proteins; test: MS-based global dynamic palmitoylation profiling in OCI-AML3 cells; details: Palm M 10 μM, ABD957 500 nM, 1 h chase
serine hydrolases = test: in situ MS-ABPP in OCI-AML3 cells, global selectivity; details: in situ 2 h; ABD957 500 nM, Palm M 10 μM, HDFP 20 μM
ABHD17-DKO cells = test: pERK Western blot; type: cell-based, human; details: OCI-AML3 ABHD17-DKO, 4 h
ABHD17s = test: in vitro MS-ABPP, OCI-AML3 proteome; type: biochemical, human; details: 1 and 10 μM, 30 min, particulate fraction
LYPLA1 = LYPLA1 (Homo sapiens, UniProt O75608); test: in vitro MS-ABPP, OCI-AML3 proteome; type: biochemical; details: 1 and 10 μM, 30 min, particulate fraction
Sequence of LYPLA1 (O75608 whole entry): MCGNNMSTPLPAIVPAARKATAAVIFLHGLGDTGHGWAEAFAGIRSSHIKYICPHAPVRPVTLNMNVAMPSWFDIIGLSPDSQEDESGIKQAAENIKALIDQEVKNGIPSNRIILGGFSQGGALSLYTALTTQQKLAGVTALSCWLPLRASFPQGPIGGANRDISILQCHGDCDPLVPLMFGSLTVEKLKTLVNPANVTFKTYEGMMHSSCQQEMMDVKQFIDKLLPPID

LYPLA2 = LYPLA2 (Homo sapiens, UniProt O95372); test: in vitro MS-ABPP, OCI-AML3 proteome; type: biochemical; details: 1 and 10 μM, 30 min, particulate fraction
Sequence of LYPLA2 (O95372 whole entry): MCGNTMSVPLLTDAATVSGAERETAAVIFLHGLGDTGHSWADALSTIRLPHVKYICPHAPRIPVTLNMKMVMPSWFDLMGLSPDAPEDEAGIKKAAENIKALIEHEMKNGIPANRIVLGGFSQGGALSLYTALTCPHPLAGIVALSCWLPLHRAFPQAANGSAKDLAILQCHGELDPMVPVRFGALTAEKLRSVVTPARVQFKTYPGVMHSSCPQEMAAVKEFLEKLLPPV

SMILES: O=C(NOC[C@H](O)CO)c1ccc(F)c(F)c1Nc1ccc(I)cc1F [PD901]
- ERK phosphorylation [1]: blocked ERK phosphorylation in both cell lines
- ERK phosphorylation (KRAS mutant NB-4 cells): blocked ERK phosphorylation in both cell lines

SMILES: C[C@H]1CN(Cc2ccc(C(F)(F)F)cc2N2CCOCC2)CCN1C(=O)n1ccc(S(=O)(=O)N(C)C)n1 [compound 8]
- ABHD10 as off-target (ABHD10): introducing ABHD10
- sustained inhibition of ABHD17A/B/C over 72 h (ABHD17A/B/C): did not produce sustained inhibition

SMILES: CCCCCCCCCC[C@@H]1C(=O)O[C@H]1CCCCS(=O)(=O)CCCN(C)C [Palm M, Palmostatin M]
- sensitivity of dynamic palmitoylation of wild type N-Ras [2]: fully preserved
- stabilization of the 22 dynamically palmitoylated proteins [3]: most of these proteins were stabilized
- ERK phosphorylation [1]: substantially blocked
- global serine hydrolase selectivity in cells (serine hydrolases): widespread serine hydrolase inhibition
- ERK phosphorylation (ABHD17-DKO cells): maintained similar activity
- ERK phosphorylation (KRAS mutant NB-4 cells): but not in KRAS mutant NB-4 cells

SMILES: CN(C)S(=O)(=O)c1cnn(C(=O)N2CCN(Cc3ccc(Cl)cc3)CC2)c1 [compound 5]
- inhibition of ABHD17s (ABHD17s): confirmed inhibition
- inhibition of LYPLA1 (LYPLA1): inhibition
- inhibition of LYPLA2 (LYPLA2): inhibition
